Test results: the NIST ThermoML archive (doi:10.1021/je900759f)

Assay: molar heat capacity at constant pressure
Settings: 101.33 kPa, Crystal, Vacuum adiabatic calorimetry

O=C([O-])c1ccccc1C(=O)O.[K+] [potassium 2-carboxybenzoate]
Settings	molar heat capacity at constant pressure [J/K/mol]
78.74 K	81.22
81.08 K	82.76
83.42 K	85
85.62 K	86.29
88.11 K	88.06
90.01 K	90.07
92.06 K	91.25
94.25 K	92.66
96.3 K	94.19
98.21 K	95.73
100.26 K	97.26
102.01 K	98.56
104.21 K	100.09
105.82 K	101.39
107.72 K	102.68
109.48 K	103.75
111.23 K	104.92
112.99 K	106.1
114.45 K	107.52
116.5 K	108.7
118.55 K	109.99
120.9 K	111.65
122.65 K	112.71
126.02 K	114.95
128.9 K	117.28
131.81 K	119.26
134.65 K	120.84
137.63 K	123.15
140.07 K	124.62
143.44 K	126.5
146.3 K	128.75
149.29 K	130.28
152.07 K	132.04
155.1 K	134.02
158.03 K	135.88
161.04 K	137.98
163.86 K	139.4
166.86 K	141.12
169.72 K	142.95
172.65 K	144.78
175.6 K	146.73
178.52 K	148.14
181.46 K	150.06
185.51 K	152.18
189.58 K	154.71
192.49 K	156.69
195.39 K	157.97
198.33 K	160.11
201.39 K	161.41
204.34 K	163.34
207.27 K	164.59
210.19 K	166.59
213.12 K	168.36
216.13 K	169.91
219.11 K	171.34
222.05 K	173.08
224.97 K	174.49
228.05 K	176.26
230.83 K	177.91
233.76 K	178.97
236.83 K	180.98
239.77 K	182.23
243.54 K	184.12
247.46 K	186.25
250.44 K	188.14
253.42 K	189.68
256.45 K	190.76
259.37 K	192.3
262.36 K	193.82
265.34 K	195.71
268.16 K	196.89
271.14 K	198.67
274.12 K	200.21
277.08 K	201.26
280.08 K	203.28
283.06 K	204.58
286.04 K	205.65
289.09 K	207.51
292.02 K	208.57
294.94 K	210.1
298.02 K	211.04
300.8 K	213.17
303.87 K	214.11
306.8 K	215.52
309.73 K	216.94
312.51 K	218.12
315.58 K	219.65
318.36 K	221.3
321.29 K	222.01
324.37 K	223.43
327.29 K	224.96
330.37 K	226.61
333.44 K	228.14
336.37 K	229.67
339.3 K	230.85
342.37 K	232.15
345.3 K	233.33
348.37 K	234.39
351.3 K	236.4
354.23 K	237.46
357.16 K	239.23
360.08 K	240.52
363.01 K	241.35
365.94 K	243
368.87 K	243.71
371.83 K	244.81
374.87 K	246.77
377.94 K	248.3
380.93 K	249.42
383.91 K	250.96
386.89 K	252.02
390.03 K	253.44
393.01 K	254.98
395.98 K	255.93
